Paper PMC9640981, “Plant vernalization proteins contain unusual PHD superdomains without histone H3 binding activity” (The Journal of Biological Chemistry, 2022)

How the values were obtained:
[1] = test system: ^15N-labeled Pd VIN3_123-326; assay: NMR (BEST-TROSY) interaction of negatively charged polymers with Pd VIN3 PHD superdomain; format: binding, Phoenix dactylifera
Experimental: For NMR spectroscopy, A. thaliana VIN3_150-208 and P. dactilyfera VIN3_123-326 were expressed in M9 minimal medium supplemented with 0.4% glucose, antibiotics, trace elements, 25 ml overnight culture, and 2 g of ^15N-H4Cl per liter of expression culture. Cultures were grown and processed essentially as described before. NMR samples containing 50 μM ^15N-labeled VIN3_150-208 or VIN3_123-326 were prepared in aqueous buffer (25 mM Tris pH 8, 150 mM NaCl, and 1 mM DTT). The 50 μM ^15N-labeled VIN3_150-208 or VIN3_123-326 was incubated with 0.5 mM histone H3 peptides resuspended in 25 mM Tris pH 8, 150 mM NaCl, and 1 mM DTT for >30 min before measurement. Spectra were recorded on a Bruker Avance-III spectrometer operating at 600 MHz ^1H frequency and equipped with a 5 mm inverse detection cryogenic probe. BEST-TROSY shift correlation experiments ([45]) were acquired with 256 × 1024 points in t1 and t2, respectively. Spectra were processed in TopSpin version 3.2 (Bruker), with linear prediction in t1, giving a digital resolution of 2.2 and 8.2 Hz/point in the processed data.
Generation of nucleic acid probes for NMR
FLC DNA was used as a template for the design of a dsDNA 60-mer probe, generated by annealing the sequence (5′ […] 3′) and its complementary oligonucleotide for 2 min at 95 °C. […]

[2] = test system: Pd VIN3_123-326; assay: ITC binding to Pd VIN3 PHD superdomain; parameters: species or system Phoenix dactylifera; conditions: 25 °C, Pd VIN3_123-326 with 60-mer DNA
Experimental: VIN3_123-326 from P. dactilyfera was amplified by PCR from synthetic codon optimized genes (gBlocks, Integrated DNA Technologies) and subcloned into pEC-LIC-His-3C (kindly provided by Jurg Muller) containing a hexahistidine tag and a 3C protease cleavage site at the N terminus. VIN3_123-326 was expressed and purified as described previously for VIN3_150-208. In this case, after 3C cleavage overnight, the sample was loaded on a HiLoad 26/600 Superdex 200 pg column (GE Healthcare) in 25 mM Tris pH 8, 150 mM NaCl, and 1 mM DTT.
ITC was carried out at 25 °C with an iTC 200 Microcalorimeter (GE Healthcare) in 25 mM Tris pH 8, 150 mM NaCl, and 1 mM DTT. Titrations consisted of 19 consecutive 2 μl injections of 0.25 to 1 mM peptide solution (following a preinjection of 0.5 μl) into 50 μM protein (VIN3PHD, VIN3_123-326, VIN3_116-307, OBE1_193-372, or pVP13 VIN3_130-299) at time intervals of 120 s. ITC data were analyzed using MicroCal PEAQ-IT Analysis Software (Malvern Sciences).

| Substance | perturbation of BEST-TROSY spectrum (in words) ([1]; 50 μM ^15N-labeled VIN3_123-326, 4 μM 60-mer dsDNA or 63-mer RNA (Fig. 6A, B), ssDNA comparison E. F.-E., unpublished) | affinity / binding of nucleic acid (in words) ([2]; ITC titrations, pH 8) | Kd ([2]; ITC, 25 mM Tris pH 8, 150 mM NaCl, 1 mM DTT, representative profile) [mM] | perturbation of BEST-TROSY spectrum, heparin (in words) ([1]; 50 μM ^15N-labeled VIN3_123-326, 4 μM heparin) |
| --- | --- | --- | --- | --- |
| 60-mer ssDNA: FLC 60-mer predicted to lack secondary structure, 5′ GAAGAAAAAGTAGATAGGCACAAAAAATAGAAAGAAATAAAGCGAGAAAAGGAAAAAAAA 3′ (DNA, backbone and methylation of C not given here) | less effective in eliciting spectral changes than dsDNA | weak binding in the low millimolar range | ~5 | – |
| heparin | – | – | – | same set of perturbations |
